Experimental data from PMC4432651, “Dynamic interplay between catalytic and lectin domains of GalNAc-transferases modulates protein O-glycosylation” (Nature Communications, 2015).
Where a SMILES comes first, the peptide text is derived from it. The star is where a group is joined. αGalNAc = CC(=O)N[C@@H]1[C@@H](O)[C@@H](O)[C@@H](CO)O[C@@H]1*

Key:
GalNAc-T2 [1] = target: T1, GalNAc-T2 (Homo sapiens, UniProt Q10471); conditions: cited from earlier work
T1 construct: made in house
From the text: Among other conclusions it was reported that the glycosylation ...

GalNAc-T2 [2] = target: T1, GalNAc-T2; experiment: X-ray crystal structures of GalNAc-T2 complexes; type: binding; as to Rg of crystal complex: values in Å
Protocol: In all cases, crystals were grown by hanging drop vapour diffusion at 18 °C. […] The protein solution consisting of 3.5 mg ml^−1 of GalNAcT-2, 5 mM UDP, 5 mM MnCl2 and 6 mM MUC5AC-13 in the same buffer described above was mixed with the precipitant solution containing 1.6 M ammonium sulfate, 100 mM sodium chloride and 100 mM HEPES (pH 7). The crystals were cryoprotected in saturated lithium sulfate and frozen in a nitrogen gas stream cooled to 100 K.
All data were processed and scaled using the XDS package[34] and CCP4 software. The crystal structures were solved by molecular replacement with Phaser[35] and using the PDB entry 4D0T as the template. Initial phases were further improved by cycles of manual model building in Coot[36] and refinement with REFMAC5 (ref. [37]). The AUs of the tetragonal crystals contain 1 molecule of GalNAc-T2 (Fig. 1). Coordinates and structure factors have been deposited in the Worldwide Protein Data Bank (wwPDB, and see Table 1 for the pdb codes).

GalNAc-T2 [3] = target: T1, GalNAc-T2; experiment: SAXS with Ensemble Optimization Method: GalNAc-T2 conformations/oligomers with ligands; conditions: for Rg from p(r) (GNOM) / Dmax / Rg (Guinier): GalNAc-T2 5 mg/ml, 25 mM TRIS pH 7.5, 10 mM MnCl2, 10 °C; for Dmax: maximum intramolecular distance, GNOM; as to Dmax: values in Å; as to Rg (Guinier): values in Å; as to Rg from p(r) (GNOM): values in Å
Protocol: SAXS measurements were performed at the European Molecular Biology Laboratory on the storage ring PETRA-III (DESY-Hamburg) on the P12 beamline equipped with a robotic sample changer and a PILATUS-2M. The analysis of the SAXS data was performed by using the EOM[31]. Additional details are in Supplementary Methods. […]
Small-angle X-ray scattering (SAXS) and data analysis
All experiments were performed in a buffer consisting of 25 mM TRIS pH 7.5, 10 mM MnCl2. The first set of experiments contained three different protein concentrations: 10 mg/ml (180 µM), 5 mg/ml (90 µM), 2.5 mg/ml (45 µM) and 1 […]
mg/ml (18 µM). The protein was measured alone and in the presence of ten times molar excess of UDP, UDP-GalNAc, UDP-EA2 peptide, MUC5AC-13, UDP-MUC5AC-13, MUC5AC, and UDP-MUC5AC. The second set of experiments was carried out with the protein concentration fixed at 5 mg/ml, and increasing concentrations of UDP (450 µM, 900 µM, 1.8 mM, 4.5 mM and 9 mM). The concentration of MUC5AC-13 was also changed as follows: 1 mM, 5 mM and 7.5 […]
Synchrotron SAXS measurements were performed at the European Molecular
Biology Laboratory (EMBL) on the storage ring PETRA-III (DESY-Hamburg) on the P12 beamline equipped with a robotic sample changer and a PILATUS-2M. The sample-detector distance was 3.1 m. The scattering intensity, I(s), was recorded at 10 °C in a momentum transfer range of 0.007<s<0.444 Å -1, where s = (4πsinθ )/λ , 2θ is the scattering angle, and λ = 1.24 Å is the X-ray wavelength. Twenty consecutive 0.05 second measurements were performed for protein samples and buffers to monitor for radiation damage that were subsequently averaged (no systematic radiation effects were observed). Buffer scattering profiles were subtracted from the sample ones using standard procedures 8. The values of the forward scattering, I(0), and radii of gyration, Rg, were calculated from the experimental SAXS patterns using Guinier’s approximation (Supplementary Fig. 4 and 5), I(s) = I(0)exp(-s2Rg2/3), which is valid in the range sRg < 1.3.
Structural analysis of the SAXS data was performed using the Ensemble Optimization Method (EOM)9. A pool of 10,000 monomeric structures of GalNac-T2 was constructed with the program RanCh9 by connecting three-dimensional structures of the catalytic and the lectin domains, extracted from the crystallographic structure 2FFU, with a flexible linker of 12 residues with random coil conformations. To […]
properly describe the data, these monomeric ensembles were enriched with 100 equivalent curves corresponding to one dimeric arrangement. As we tested three dimers, we built three different ensembles with the same 10,000 monomeric conformations and 100 copies of each one of the dimers. The three different dimers used for SAXS are shown in Supplementary Fig. 3c and correspond to three different crystal structures obtained under different conditions.
The scattering profiles of all members of the pool were computed with the program CRYSOL using standard parameters10. The pool of structures/profiles was submitted to the genetic algorithm (GA) with the aim to select a subensemble of 50 structures/curves with the capacity to collectively describe the experimental SAXS […]
was repeated 200 times starting from different randomly selected subensembles, and the resulting solutions were analysed together. The same pool was used to describe all the measured data. Results were quantitatively analysed by displaying the Rg distributions of the selected ensembles and the relative population of monomeric and dimeric species.
Three different dimeric arrangements were introduced individually in the pool. In all three cases the dimers display similar contacts between the lectin domains and the lectin domain of one monomer with the catalytic domain of a second monomer (Supplementary Fig. 3c). We can distinguish the crystallographic dimers by the buried area parameter inferred from the PISA server. The dimers present in the crystal structure of GalNAc-T2-UDP complex (PDB entry 2FFV) are the most compact ones […]

[4] = ligand molar ratio GalNAc-T2:ligand 1:10
[5] = ligand molar ratio GalNAc-T2:ligand 1:20

T1 sequence (Q10471 75-571 limits assumed): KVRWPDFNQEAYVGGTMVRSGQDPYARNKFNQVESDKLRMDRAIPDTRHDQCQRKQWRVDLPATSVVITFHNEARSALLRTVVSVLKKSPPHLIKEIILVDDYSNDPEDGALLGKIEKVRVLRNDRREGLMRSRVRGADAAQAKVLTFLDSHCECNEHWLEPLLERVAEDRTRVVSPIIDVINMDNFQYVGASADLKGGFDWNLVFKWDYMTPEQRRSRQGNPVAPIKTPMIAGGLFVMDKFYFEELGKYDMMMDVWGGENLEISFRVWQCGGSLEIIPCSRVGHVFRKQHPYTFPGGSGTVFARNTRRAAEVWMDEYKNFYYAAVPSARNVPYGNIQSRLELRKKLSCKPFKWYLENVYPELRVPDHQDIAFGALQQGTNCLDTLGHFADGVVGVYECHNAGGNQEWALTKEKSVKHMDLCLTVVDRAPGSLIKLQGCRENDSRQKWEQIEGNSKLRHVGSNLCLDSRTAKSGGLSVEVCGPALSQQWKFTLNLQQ

Structure (SMILES): CC(=O)NCC(=O)N[C@H](C(=O)N[C@H](C(=O)N1CCC[C@H]1C(=O)N[C@@H](CO)C(=O)N1CCC[C@H]1C(=O)N[C@H](C(=O)N1CCC[C@H]1C(=O)N[C@H](C(=O)N[C@H](C(=O)N[C@@H](CO)C(=O)N[C@H](C(=O)N[C@H](C(=O)N[C@@H](CO)C(=O)N[C@@H](C)C(N)=O)[C@@H](C)O[C@H]1O[C@H](CO)[C@H](O)[C@H](O)[C@H]1NC(C)=O)[C@@H](C)O)[C@@H](C)O)[C@@H](C)O)C(C)C)[C@@H](C)O)[C@@H](C)O [MUC5AC-13] (Ac-GTTPSPVPTTSTT(αGalNAc)SA-NH2; N-terminus assumed)
- optimal glycosylation site (GalNAc-T2 [1]; prior glycosylated site Thr13, ref 1 (supplement)): optimally 10 residues N-terminal (Thr3)
- glycosylation of further sites Ser5 and Thr9 (GalNAc-T2 [1]; ref 1 (supplement)): not in an efficient manner
- Rg of crystal complex (GalNAc-T2 [2]; GalNAc-T2-UDP-MUC5AC-13 complex): 26.41 Å
- form of GalNAc-T2 bound in crystal (GalNAc-T2 [2]; co-crystallization with UDP and Mn+2, flexible loop conformation): bound to an active form of GalNAc-T2
- effect on GalNAc-T2 dimers (in words) (GalNAc-T2 [3]; GalNAc-T2 fixed at 5 mg ml−1, increasing concentrations of peptide): dimers almost disappear from solution
- Rg from p(r) (GNOM) (GalNAc-T2 [3]; ligand molar ratio 1:10): 30.6 Å
- Dmax (GalNAc-T2 [3]; ligand molar ratio 1:10): 112 Å
- Rg from p(r) (GNOM) (GalNAc-T2 [3]; ligand molar ratio 1:20): 29.2 Å
- Dmax (GalNAc-T2 [3]; ligand molar ratio 1:20): 102 Å
- Rg (Guinier) (GalNAc-T2 [3]; [4]): 30.2±0.2 Å
- Rg (Guinier) (GalNAc-T2 [3]; [5]): 29.1±0.1 Å
- Rg (Guinier) (GalNAc-T2 [3]; peptide + UDP (1:10)): 30.7±0.4 Å
- Rg from p(r) (GNOM) (GalNAc-T2 [3]; peptide + UDP (1:10)): 31.7 Å
- Dmax (GalNAc-T2 [3]; peptide + UDP (1:10)): 112 Å

Structure (SMILES): O=c1ccn([C@@H]2O[C@H](COP(=O)(O)OP(=O)(O)O)[C@@H](O)[C@H]2O)c(=O)[nH]1 [UDP, uridine diphosphate, reference compound]
- Rg from p(r) (GNOM) (GalNAc-T2 [3]; ligand molar ratio 1:5): 34.3 Å
- Dmax (GalNAc-T2 [3]; ligand molar ratio 1:5): 121 Å
- Rg from p(r) (GNOM) (GalNAc-T2 [3]; ligand molar ratio 1:10): 35.0 Å
- Dmax (GalNAc-T2 [3]; ligand molar ratio 1:10): 123 Å
- Rg from p(r) (GNOM) (GalNAc-T2 [3]; ligand molar ratio 1:20): 34.5 Å
- Dmax (GalNAc-T2 [3]; ligand molar ratio 1:20): 122 Å
- Rg from p(r) (GNOM) (GalNAc-T2 [3]; ligand molar ratio 1:50): 36.0 Å
- Dmax (GalNAc-T2 [3]; ligand molar ratio 1:50): 129 Å
- Rg (Guinier) (GalNAc-T2 [3]; ligand molar ratio GalNAc-T2:ligand 1:5): 32.7±0.3 Å
- Rg (Guinier) (GalNAc-T2 [3]; [4]): 34.4±0.3 Å
- Rg (Guinier) (GalNAc-T2 [3]; [5]): 34.0±0.2 Å
- Rg (Guinier) (GalNAc-T2 [3]; ligand molar ratio GalNAc-T2:ligand 1:50): 36.0±0.3 Å
